Reference: article PMC12969314 (European journal of medicinal chemistry, 2022)

Experiments:
D4 receptor = molecular target: T1, D4 receptor (Homo sapiens, UniProt P21917); format: binding; settings: for selectivity against the dopamine receptor family: σ1 over D1-5
T1 sequence (P21917 1-419): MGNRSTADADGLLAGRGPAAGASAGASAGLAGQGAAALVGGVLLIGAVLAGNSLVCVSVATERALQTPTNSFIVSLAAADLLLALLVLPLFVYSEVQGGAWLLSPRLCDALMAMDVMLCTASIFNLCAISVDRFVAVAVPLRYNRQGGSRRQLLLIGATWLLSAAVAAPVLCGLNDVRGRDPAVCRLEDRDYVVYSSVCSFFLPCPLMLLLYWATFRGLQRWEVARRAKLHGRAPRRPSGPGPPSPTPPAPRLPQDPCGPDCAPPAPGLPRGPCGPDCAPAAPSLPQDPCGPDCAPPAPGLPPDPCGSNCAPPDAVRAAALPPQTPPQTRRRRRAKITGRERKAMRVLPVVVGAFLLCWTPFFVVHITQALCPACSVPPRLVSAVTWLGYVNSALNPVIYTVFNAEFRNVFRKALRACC

σ2 receptor = σ2 receptor (Homo sapiens, UniProt Q5BJF2); assay: σ2 receptor radioligand binding, [3H]DTG, HEK293 membranes; settings: ratio, σ1 over σ2
Sequence of σ2 receptor (Q5BJF2 whole entry, species assumed): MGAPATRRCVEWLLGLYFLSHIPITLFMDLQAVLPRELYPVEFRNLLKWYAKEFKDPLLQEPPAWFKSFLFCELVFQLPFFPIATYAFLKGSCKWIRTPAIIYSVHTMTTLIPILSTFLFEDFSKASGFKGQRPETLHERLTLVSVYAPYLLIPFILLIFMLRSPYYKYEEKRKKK

SERT = SERT (Homo sapiens, UniProt P31645); assay: PDSP panel binding, SERT; settings: σ1 over SERT
Sequence of SERT (P31645 whole entry, species assumed): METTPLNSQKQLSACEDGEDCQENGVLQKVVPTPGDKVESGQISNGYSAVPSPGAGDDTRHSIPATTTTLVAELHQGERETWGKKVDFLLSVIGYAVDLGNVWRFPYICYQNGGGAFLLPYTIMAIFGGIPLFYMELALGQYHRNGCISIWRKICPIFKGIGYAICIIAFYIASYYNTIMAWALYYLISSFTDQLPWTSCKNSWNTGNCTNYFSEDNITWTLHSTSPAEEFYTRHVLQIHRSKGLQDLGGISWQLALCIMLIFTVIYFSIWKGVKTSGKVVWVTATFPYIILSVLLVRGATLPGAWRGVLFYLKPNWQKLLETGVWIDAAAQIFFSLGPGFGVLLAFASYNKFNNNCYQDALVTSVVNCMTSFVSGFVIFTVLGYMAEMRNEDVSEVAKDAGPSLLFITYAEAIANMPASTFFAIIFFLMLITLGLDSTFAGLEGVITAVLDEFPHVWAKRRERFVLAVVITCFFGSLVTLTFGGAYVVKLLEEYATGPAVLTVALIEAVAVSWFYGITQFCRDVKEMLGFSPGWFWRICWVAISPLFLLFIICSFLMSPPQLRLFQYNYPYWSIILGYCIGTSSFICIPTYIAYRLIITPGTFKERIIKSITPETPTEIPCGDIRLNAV

α2C = molecular target: T2, α2C (Homo sapiens, UniProt P18825); assay: PDSP panel binding, α2C
T2 sequence (P18825 1-462): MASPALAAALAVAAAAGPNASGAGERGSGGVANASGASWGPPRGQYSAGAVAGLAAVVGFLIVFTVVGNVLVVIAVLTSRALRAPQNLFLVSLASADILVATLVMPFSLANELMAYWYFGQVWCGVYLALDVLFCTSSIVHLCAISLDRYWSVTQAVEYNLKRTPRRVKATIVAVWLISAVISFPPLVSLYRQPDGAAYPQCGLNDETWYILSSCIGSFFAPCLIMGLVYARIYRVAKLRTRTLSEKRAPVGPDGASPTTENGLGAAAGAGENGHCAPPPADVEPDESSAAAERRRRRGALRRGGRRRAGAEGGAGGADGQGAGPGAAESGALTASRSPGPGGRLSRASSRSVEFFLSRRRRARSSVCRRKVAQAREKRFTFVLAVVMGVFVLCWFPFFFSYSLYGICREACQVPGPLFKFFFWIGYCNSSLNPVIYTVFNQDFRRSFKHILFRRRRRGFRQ

[1] = Human liver microsomal intrinsic clearance; format: in vitro ADME; settings: human; for CLint scaled: liver microsomes, Intrinsic clearance hCLINT, human liver microsomes; for Predicted hepatic clearance hCLHEP: well-stirred organ CL model, binding terms excluded
[2] = Mouse liver microsomal intrinsic clearance; format: in vitro ADME; settings: for Predicted hepatic clearance mCLHEP: well-stirred organ CL model, binding terms excluded; for CLint scaled: liver microsomes
[3] = Mouse plasma protein binding, equilibrium dialysis; format: in vitro ADME; settings: mouse, plasma, fu (mPPB), fraction, used for Kp,uu
[4] = Discrete mouse in vivo PK study, plasma and brain; settings: for half-life: ip, 5 mg/kg
[5] = Mouse brain homogenate binding; format: in vitro ADME
[6] = Human plasma protein binding, equilibrium dialysis; format: in vitro ADME
DAT = DAT (Homo sapiens, UniProt Q01959); assay: PDSP panel binding, DAT; settings: for selectivity versus DAT: σ1 over DAT
Sequence of DAT (Q01959 whole entry, species assumed): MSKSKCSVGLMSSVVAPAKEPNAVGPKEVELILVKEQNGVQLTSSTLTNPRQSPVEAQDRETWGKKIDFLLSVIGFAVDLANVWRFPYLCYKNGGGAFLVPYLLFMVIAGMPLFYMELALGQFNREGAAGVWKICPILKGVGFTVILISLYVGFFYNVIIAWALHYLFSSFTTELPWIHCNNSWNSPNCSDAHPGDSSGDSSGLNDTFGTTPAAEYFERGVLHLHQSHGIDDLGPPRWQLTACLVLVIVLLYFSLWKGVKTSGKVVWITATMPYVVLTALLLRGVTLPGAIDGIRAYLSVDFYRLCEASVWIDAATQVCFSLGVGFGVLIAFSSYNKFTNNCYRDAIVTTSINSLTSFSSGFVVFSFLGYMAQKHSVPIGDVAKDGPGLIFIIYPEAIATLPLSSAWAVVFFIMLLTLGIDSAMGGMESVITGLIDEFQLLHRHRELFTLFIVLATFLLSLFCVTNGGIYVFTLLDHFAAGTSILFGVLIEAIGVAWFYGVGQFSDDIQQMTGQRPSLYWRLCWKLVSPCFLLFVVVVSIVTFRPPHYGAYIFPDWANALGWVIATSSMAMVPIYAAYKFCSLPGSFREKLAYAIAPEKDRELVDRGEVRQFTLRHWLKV

D1 receptor = D1 receptor (Homo sapiens, UniProt P21728); assay: D1 receptor radioligand binding, [3H]SCH23390, HEK293 membranes
Sequence of D1 receptor (P21728 whole entry): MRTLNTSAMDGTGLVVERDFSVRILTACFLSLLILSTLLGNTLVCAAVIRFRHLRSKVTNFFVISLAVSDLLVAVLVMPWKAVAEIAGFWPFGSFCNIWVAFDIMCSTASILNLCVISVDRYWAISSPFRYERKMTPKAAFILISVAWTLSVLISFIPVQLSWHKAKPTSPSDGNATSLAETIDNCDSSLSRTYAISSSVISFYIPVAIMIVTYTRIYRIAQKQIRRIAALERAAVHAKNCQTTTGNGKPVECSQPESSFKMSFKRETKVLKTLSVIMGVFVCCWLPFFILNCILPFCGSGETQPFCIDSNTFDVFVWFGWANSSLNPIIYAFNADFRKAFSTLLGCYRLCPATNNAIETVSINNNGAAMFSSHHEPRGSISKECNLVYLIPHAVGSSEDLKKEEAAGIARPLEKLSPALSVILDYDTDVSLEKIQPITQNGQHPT

α2A = molecular target: T3, α2A (Homo sapiens, UniProt P08913); assay: PDSP panel binding, α2A
T3 sequence (P08913 1-465): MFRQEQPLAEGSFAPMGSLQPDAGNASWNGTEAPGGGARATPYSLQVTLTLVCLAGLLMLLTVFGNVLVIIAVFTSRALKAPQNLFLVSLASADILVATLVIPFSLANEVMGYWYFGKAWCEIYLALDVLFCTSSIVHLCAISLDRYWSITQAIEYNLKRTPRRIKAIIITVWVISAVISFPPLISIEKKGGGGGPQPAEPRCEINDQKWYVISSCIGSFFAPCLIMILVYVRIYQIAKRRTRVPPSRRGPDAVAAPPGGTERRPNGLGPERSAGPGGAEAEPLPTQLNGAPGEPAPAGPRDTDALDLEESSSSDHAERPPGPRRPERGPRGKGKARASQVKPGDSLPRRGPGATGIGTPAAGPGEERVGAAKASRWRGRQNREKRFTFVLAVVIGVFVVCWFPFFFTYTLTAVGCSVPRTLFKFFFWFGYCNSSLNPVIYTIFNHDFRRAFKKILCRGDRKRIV

Row | Compound | selectivity against the dopamine receptor family (D4 receptor) [fold] | selectivity σ1:σ2 (σ2 receptor) | CLint scaled [1] [mL/min/kg] | Predicted hepatic clearance hCLHEP [1] [mL/min/kg] | Predicted hepatic clearance mCLHEP [2] [mL/min/kg] | CLint scaled [2] [mL/min/kg] | Ki (D4 receptor) [µM] | further results
1 | Fc1ccc(COC2CCN(Cc3ccc4[nH]cnc4c3)CC2)cc1F [Compound 10a, 5-((4-((3,4-difluorobenzyl)oxy)piperidin-1-yl)methyl)-1H-benzo[d]imidazole] | > 490 | 20 | < 20 | <10 | 46.0 | – | – | selectivity versus SERT (SERT): 20; Ki (α2C): 0.853 µM; selectivity versus α2C (α2C; σ1 over α2C): 103; fraction unbound [3]: 0.358; B:P Kp,uu ([4]; IP 5 mg/kg, 5 h, free brain to free plasma concentration): 3.68; half-life ([4]; brain): 9.1 h; half-life ([4]; plasma): 2.1 h; fraction unbound [5]: 0.205
2 | Fc1cc(COC2CCN(Cc3ccc4[nH]cnc4c3)CC2)ccc1Cl [Compound 10b, 5-((4-((4-chloro-3-fluorobenzyl)oxy)piperidin-1-yl)methyl)-1H-benzo[d]imidazole] | – | – | – | 14.2 | 45.1 | – | – | fraction unbound [3]: 0.189; half-life ([4]; brain): 6.9 h; half-life ([4]; plasma): 3.7 h; fraction unbound [5]: 0.093
3 | COc1ccc(CN2CCC[C@@H](OCc3ccc(F)c(C)c3)C2)cc1F [Compound 19b, (R)-3-((4-fluoro-3-methylbenzyl)oxy)-1-(3-fluoro-4-methoxybenzyl)piperidine] | – | – | 674 | 19.5 | 82.4 | 961 | – | Stability in human plasma (hPPB column) [6]: c
4 | Cc1ccc(CO[C@H]2CCCN(Cc3ccc(C#N)cc3)C2)cc1 [Compound 19f, (S)-4-((3-((4-methylbenzyl)oxy)piperidin-1-yl)methyl) benzonitrile] | > 74 | – | 842 | 19.6 | 76.0 | 485 | – | selectivity versus DAT (DAT): 300
5 | Cc1ccc(CO[C@H]2CCCN(Cc3cccc(F)c3)C2)cc1 [Compound 19g, (S)-1-(3-fluorobenzyl)-3-((4-methylbenzyl)oxy)piperidine] | > 74 | 31 | 1400 | 19.8 | 86.8 | > 2400 | > 10 | Ki (DAT): 8.81 µM; selectivity versus DAT (DAT): 473
6 | COc1ccc(CO[C@H]2CCCN(Cc3cccc(C)c3)C2)cc1F [Compound 19h, (S)-3-((3-fluoro-4-methoxybenzyl)oxy)-1-(3-methylbenzyl)piperidine] | – | – | – | – | – | – | > 10 | inhibition at 10 µM (D4 receptor; read-out: D4 % inhibition): 46%; Ki (D1 receptor): > 10 µM
7 | Fc1ccc(CN2CCCC23CCN(Cc2cn4ccccc4n2)C3)cc1F (centres unmarked) [Compound 25a, 1-(3,4-difluorobenzyl)-7-(imidazo[1,2-a]pyridin-2-ylmethyl)-1,7-diazaspiro[4.4]nonane] | – | 6 | 223 | 18.4 | 79.8 | 696 | > 10 | Ki (α2A): 0.697 µM; selectivity versus α2A (α2A; σ1 over α2A): 194
